For test [1], the target named is T1, human GST-DYRK1A (Homo sapiens, UniProt Q13627).
T1 construct: purified human GST-DYRK1A (full length, Thermo Scientifics) enzyme; purchased Thermo Scientifics
The test can be described thus: GST-DYRK1A enzyme inhibition, ADP-Glo kinase assay. Type of test: biochemical. The conditions noted are these: ATP 10 μM, GST-DYRK1A full length, read-out: DYRK1 IC50. The protocol:
(§1) To evaluate an inhibitory activity of the compound according to the present invention against LRRK2, LRRK2 (G2019S), DYRK1, CLK1, and TTK kinases, experiments were performed as follows.
(§2) Each of the Example compounds was reacted with a purified human GST-DYRK1A (full length, Thermo Scientifics) enzyme to evaluate an ability to inhibit an enzyme using a method as described below. A composition of 40 mM Tris-HCl (pH 7.4), 20 mM MgCl2, 0.5 mg/mL BSA, and 50 μM DTT was used as a reaction buffer, and all reactions of test substances were performed in the reaction buffer. In the test, purified ATP (10 μM) and a specific substrate solution were reacted with a human GST-DYRK1A (full length, 10 ng) enzyme at 25° C. for an hour, and the enzyme activities were then determined using an in vitro ADP-Glo™ kinase assay (Promega). An enzyme-activity reaction solution, an ADP-Glo reaction solution, and an enzyme-ability detection solution were reacted at a ratio of 2:2:1 to measure a degree of inhibition of the enzyme activity with luminescence. The degree of inhibition of the enzyme activity according to the treatment concentration of each of the compounds was calculated based on the fluorescence of the enzyme activity of the solvent control which was not treated with the compound. In this case, the concentration of each of the compounds inhibiting 50% of the enzyme activity was determined to be an IC50 (nM) value, and the IC50 (nM) value of each of the compounds was determined from 3 sets of data, and calculated using Prism (Version 5.01; GraphPad) software.
In general terms: ADP-Glo first removes unused ATP, then detects ADP through luciferase.

For test [2], the target named is T2, human GST-CLK1 (Homo sapiens, UniProt P49759).
T2 construct: purified human GST-CLK1 (129-end, SignalChem) enzyme; purchased SignalChem
The test is described as follows: GST-CLK1 enzyme inhibition, ADP-Glo kinase assay. The format is biochemical. The conditions noted are these: ATP 10 μM, GST-CLK1 129-end. The protocol:
as §1
as §2, with “GST-CLK1 (129-end, SignalChem)” for “GST-DYRK1A (full length, Thermo Scientifics)”, “GST-CLK1 (129-end, 3” for “GST-DYRK1A (full length, 10”, “value. The” for “value, and the”

Drawing on patent US20230066011A1, “PYRROLOPYRIMIDINE DERIVATIVE, AND PHARMACEUTICAL COMPOSITION FOR PREVENTING OR TREATING PROTEIN KINASE-RELATED DISEASE COMPRISING SAME AS ACTIVE INGREDIENT” (VORONOI CO., LTD., priority 2019, published 2023), this text covers IC50 for 18 compounds.

T2 sequence (P49759 129-484 limits assumed): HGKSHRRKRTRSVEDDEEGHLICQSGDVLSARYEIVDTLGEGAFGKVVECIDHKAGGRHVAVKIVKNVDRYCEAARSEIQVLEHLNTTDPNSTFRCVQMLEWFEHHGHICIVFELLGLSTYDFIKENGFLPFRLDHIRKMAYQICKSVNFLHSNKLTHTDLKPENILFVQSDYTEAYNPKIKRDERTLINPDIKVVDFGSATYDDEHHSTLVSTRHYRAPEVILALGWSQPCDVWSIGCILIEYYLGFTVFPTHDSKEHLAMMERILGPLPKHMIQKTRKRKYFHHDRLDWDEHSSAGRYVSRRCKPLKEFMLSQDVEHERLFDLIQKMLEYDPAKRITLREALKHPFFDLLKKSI

For `COc1cc(P2(=O)CCN(C3CC3)CC2)ccc1Nc1nc(NCCS(C)(=O)=O)c2c(C#N)c[nH]c2n1` [Example 310, 2-((4-(1-cycloproopyl-4-oxido-1,4-azaphosphinan-4-yl)-2-methoxyphenyl)a-mino)-4-((2-(methylsulfonyl)ethyl)amino)-7H-pyrrolo[2,3-d]pyrimidine-5-carbonitrile], the 50% inhibitory concentration (IC50) in test [1] was in the range of 301 to 1000 nM; in test [2], 101 to 300 nM.
As for `COc1cc(P2(=O)CCN(C3CC3)CC2)ccc1Nc1nc(NC2CC2)c2c(C#N)c[nH]c2n1` [Example 285, 2-((4-(1-cyclopropyl-4-oxido-1,4-azaphosphinan-4-yl)-2-methoxyphenyl)a-mino)-4-(cyclo-propylamino)-7H-pyrrolo[2,3-d]pyrimidine-5-carbonitrile], the 50% inhibitory concentration (IC50) in test [1] fell in the range of 301 to 1000 nM; in test [2], 101 to 300 nM.
Regarding `N#Cc1c[nH]c2nc(Nc3ccc(C(=O)N4CCN(C5COC5)CC4)c4c3OCCO4)nc(NCC3CC3)c12` [Example 317, 4-((cyclo-propylmeth-yl)amino)-2-((8-(4-(oxetan-3-yl)piperazine-1-carbonyl)-2,3-dihydrobenzo[b] [1,4]dioxin-5-yl)amino)-7H-pyrrolo[2,3-d]pyrimidine-5-carbonitrile], the IC50 is 301 to 1000 nM in test [1] and less than 100 nM in test [2].
For `CCCNc1nc(Nc2ccc(P(C)(C)=O)cc2OC)nc2[nH]cc(C#N)c12` [Example 254, 2-((4-(dimethylphosphoryl)-2-methoxyphenyl)amino)-4-(propylamino)-7H-pyrrolo[2,3-d]pyrimidine-5-carbonitrile], in that order: 101 to 300 nM and 101 to 300 nM.
On the same counts, the results for `COc1cc(P2(=O)CCN(C3CC3)CC2)ccc1Nc1nc(NCC(C)C)c2c(C#N)c[nH]c2n1` [Example 290, 2-((4-(1-cyclopropyl-4-oxido-1,4-azaphosphinan-4-yl)-2-methoxyphenyl)a-mino)-4-(isobutylamino)-7H-pyrrolo[2,3-d]pyrimidine-5-carbonitrile] are 301 to 1000 nM and 301 to 1000 nM.
On the same counts, the results for `O=C(c1ccc(Nc2nc(NC3CCCCC3)c3c(C(F)(F)F)c[nH]c3n2)c2c1OCCO2)N1CCC(N2CCOCC2)CC1` [Example 204, (8-((4-(cyclohexylamino)-5-(trifluoromethyl)-7H-pyrrolo[2,3-d]pyrimidin-2-yl)amino)-2,3-dihydrobenzo[b][1,4]dioxin-5-yl)(4-morpholinopiperidin-1-yl)methanone] are 101 to 300 nM and 301 to 1000 nM.
`N#Cc1c[nH]c2nc(Nc3ccc(C(=O)N4CC(CO)(CO)C4)c4c3OCCO4)nc(NCC3CCC3)c12` [Example 339, 2-((8-(3,3-bis (hydroxymethyl)azetidine-1-carbonyl)-2,3-dihydrobenzo [b][1,4]dioxin-5-yl)amino)-4-((cyclobutyl-methyl)amino)-7H-pyrrolo[2,3-d]pyrimidine-5-carbonitrile]: the IC50 in test [1] was 301 to 1000 nM; in test [2], less than 100 nM.
For `COc1cc(P2(=O)CCN(C3CC3)CC2)ccc1Nc1nc(NCC2CCC2)c2c(C#N)c[nH]c2n1` [Example 306, 4-((cyclo-butylmethyl)amino)-2-((4-(1-cyclopropyl-4-oxido-1,4-azaphosphinan-4-yl)-2-methoxyphenyl)a-mino)-7H-pyrrolo[2,3-d]pyrimidine-5-carbonitrile], in that order: 301 to 1000 nM and 301 to 1000 nM.
On the same counts, the results for `COc1cc(P2(=O)CCN(C3COC3)CC2)ccc1Nc1nc(NCC2CC2)c2c(C#N)c[nH]c2n1` [Example 305, 4-((cyclo-propylmeth-yl)amino)-2-((2-methoxy-4-(1-(oxetan-3-yl)-4-oxido-1,4-azaphosphinan-4-yl)phenyl)amino)-7H-pyrrolo[2,3-d]pyrimidine-5-carbonitrile] are 101 to 300 nM and less than 100 nM.
Consider `COc1cc(P2(=O)CCN(C3COC3)CC2)ccc1Nc1nc(NCC(C)C)c2c(C#N)c[nH]c2n1` [Example 291, 4-(isobutyl-amino)-2-((2-methoxy-4-(1-(oxetan-3-yl)-4-oxido-1,4-azaphosphinan-4-yl)phenyl)amino)-7H-pyrrolo[2,3-d]pyrimidine-5-carbonitrile], for which the IC50 is 301 to 1000 nM in test [1] and 101 to 300 nM in test [2].
On the same counts, the results for `COc1cc(P(C)(C)=O)ccc1Nc1nc(NCC2CC2)c2c(C#N)c[nH]c2n1` [Example 273, 4-((cyclopropylmethyl)amino)-2-((4-(dimethylphosphoryl)-2-methoxyphenyl)amino)-7H-pyrrolo[2,3-d]pyrimidine-5-carbonitrile] are 301 to 1000 nM and 101 to 300 nM.
On the same counts, the results for `N#Cc1c[nH]c2nc(Nc3ccc(C(=O)N4CC(CO)(CO)C4)c4c3OCCO4)nc(NCC3CCCC3)c12` [Example 340, 2-((8-(3,3-bis (hydroxymethyl)azetidine-1-carbonyl)-2,3-dihydrobenzo [b][1,4]dioxin-5-yl)amino)-4-((cyclopentyl-methyl)amino)-7H-pyrrolo[2,3-d]pyrimidine-5-carbonitrile] are 301 to 1000 nM and less than 100 nM.
On the same counts, the results for `CC[C@@H](C)Nc1nc(Nc2ccc(C(=O)N3CC(CO)(CO)C3)c3c2OCCO3)nc2[nH]cc(C#N)c12` [Example 330, (R)-2-((8-(3,3-bis(hydroxy-methyl)azetidine-1-carbonyl)-2,3-dihydrobenzo[b] [1,4]dioxin-5-yl)amino)-4-(sec-butylamino)-7H-pyrrolo[2,3-d]pyrimidine-5-carbonitrile] are 301 to 1000 nM and less than 100 nM.
Consider `N#Cc1c[nH]c2nc(Nc3ccc(C(=O)N4CC(CO)(CO)C4)c4c3OCCO4)nc(NC3CCC3)c12` [Example 333, 2-((8-(3,3-bis (hydroxymethyl)azetidine-1-carbonyl)-2,3-dihydrobenzo[b] [1,4]dioxin-5-yl)amino)-4-(cyclobutyl-amino)-7H-pyrrolo[2,3-d]pyrimidine-5-carbonitrile], for which the 50% inhibitory concentration (IC50) in test [1] was 301 to 1000 nM; in test [2], less than 100 nM.
For `CCCNc1nc(Nc2ccc(P(C)(C)=O)cc2OC)nc2[nH]cc(C(F)(F)F)c12` [Example 369, (3-methoxy-4-((4-(propylamino)-5-(trifluoromethyl)-7H-pyrrolo[2,3-d]pyrimidin-2-yl)amino)phenyl) dimethyl-phosphine oxide], the IC50 in test [1] was 101 to 300 nM; in test [2] it was less than 100 nM.
On the same counts, the results for `O=C(c1ccc(Nc2nc(NCC3CCCC3)c3c(C(F)(F)F)c[nH]c3n2)c2c1OCCO2)N1CCOCC1` [Example 205, (8-((4-((cyclopentylmethyl)amino)-5-(trifluoromethyl)-7H-pyrrolo[2,3-d]pyrimidin-2-yl)amino)-2,3-dihydrobenzo[b][1,4]dioxin-5-yl)(morpholino)methanone] are 301 to 1000 nM and 301 to 1000 nM.
For the compound `O=C(c1ccc(Nc2nc(N[C@@H]3CCOC3)c3cc[nH]c3n2)c2c1OCCO2)N1CCOCC1` [Example 50, (R)-morpholino(8-((4-((tetrahydrofuran-3-yl)amino)-7H-pyrrolo[2,3-d]pyrimidin-2-yl)amino)-2,3-dihydrobenzo[b][1,4]dioxin-5-yl)methanone], the IC50 in test [1] and in test [2] was 301 to 1000 nM in each case.
Regarding `COc1cc(S(C)(=O)=O)ccc1Nc1nc(NCC(C)C)c2c(C(F)(F)F)c[nH]c2n1` [Example 180, N^4-isobutyl-N^2-(2-methoxy-4-(methylsulfonyl)phenyl)-5-(trifluoromethyl)-7H-pyrrolo[2,3-d]pyrimidine-2,4-diamine], the concentration for half-maximal inhibition (IC50) in test [1] and in test [2] was 301 to 1000 nM in each case.

As usually defined, the IC50 is the concentration at which inhibition is half-maximal.
